Measurements from PMC1828167, “HIV-1 integrase inhibitors are substrates for the multidrug transporter MDR1-P-glycoprotein” (Retrovirology, 2007).

Assays:
[1] = system: P-gp expression in CEMrev cells; assay: Induction of P-gp expression in CEMrev cells (flow cytometry); format: cell-based, human; details: for % of P-gp expressing cells: CEMrev
Description: Similarly to some of the isozymes involved in drug metabolism, the expression of P-gp is inducible. It is therefore important to assess whether P-gp induction occurs upon exposure to IINs, with potential implications for drug metabolism. To this aim, we investigated whether the treatment with the IINs RDS 1974, RDS 1983, RDS 1984 and RDS 1996, all having different biological and physicochemical properties (Table 1), modulate P-gp expression in the human CD4+ CEM cell system. The parental drug sensitive CEM cell line and the revertant of its derivative CEM-VBL10 MDR cell variant (CEMrev), expressing very low or undetectable amount of P-gp, were cultured in the presence of the indicated IINs ([…]; 25 μg/ml for RDS 1983 and RDS 1984) for 28 days (RDS 1983, RDS 1984 and RDS 1996) or 104 days (RDS 1974). As a control for P-gp modulation, CEMrev cells were exposed to VBL, shown to increase P-gp expression.
The multidrug resistant (MDR) variants CEM-VBL10 and CEM-VBL100 cells were isolated by stepwise selection of the parental drug sensitive CCRF-CEM (CEM) in the presence of increasing concentrations of VBL [31, 32]. Cells were grown under standard conditions for mammalian cells cultured in suspension. The basic medium (BM) for cell culturing consisted of RPMI-1640 supplemented with 10% foetal calf serum (FCS), L-glutamine (2 mM) penicillin (100 U/mL) and streptomycin (100 U/mL). All these components were purchased from Hyclone (Logan, Utah). Identical BM, culture conditions and trypsin (Hyclone) were used for the adherent MDR variant KB.V1 of the human oral epidermoid carcinoma KB cells. To test the ability of selected IINs (RDS 1974, […], RDS 1984 and RDS 1996) to induce de novo expression of P-glycoprotein, the drug-sensitive CEMrev cell line was used; this cell line derives from the CEM-VBL10 MDR cell line, cultured for more than 2 years in VBL-free medium and expresses very low (1–3%) or undetectable amounts of P-gp.
(§1) The anti CD4-FITC mAb was purchased from Vinci Biochem, Firenze, Italy. The mAb UIC2 [30] was kindly provided by Dr. E. Mechetner (Chemicon Inc, Temecula, CA). For determination of P-gp expression, the mAb MM4.17, recognizing an extracellular P-gp epitope on intact/living human MDR cells, was also used. Both UIC2 and MM4.17 mAbs were used in a highly purified form.

HIV-1 Integrase (IN) = biological target: HIV-1 Integrase (IN); parameters: method as in PMID 16539381; details: HIV-1 integration strand transfer step; 50% Inhibitory Concentration; cited from earlier work
[2] = biological target: T1, MDR1-P-glycoprotein (P-gp) (Homo sapiens, UniProt P08183); assay: Doxorubicin efflux/retention in KB-V1 MDR cells (confocal microscopy); details: 25 μg/ml, 5 μg/ml doxorubicin, 1 and 3 hrs of extrusion
T1 sequence (P08183 whole entry): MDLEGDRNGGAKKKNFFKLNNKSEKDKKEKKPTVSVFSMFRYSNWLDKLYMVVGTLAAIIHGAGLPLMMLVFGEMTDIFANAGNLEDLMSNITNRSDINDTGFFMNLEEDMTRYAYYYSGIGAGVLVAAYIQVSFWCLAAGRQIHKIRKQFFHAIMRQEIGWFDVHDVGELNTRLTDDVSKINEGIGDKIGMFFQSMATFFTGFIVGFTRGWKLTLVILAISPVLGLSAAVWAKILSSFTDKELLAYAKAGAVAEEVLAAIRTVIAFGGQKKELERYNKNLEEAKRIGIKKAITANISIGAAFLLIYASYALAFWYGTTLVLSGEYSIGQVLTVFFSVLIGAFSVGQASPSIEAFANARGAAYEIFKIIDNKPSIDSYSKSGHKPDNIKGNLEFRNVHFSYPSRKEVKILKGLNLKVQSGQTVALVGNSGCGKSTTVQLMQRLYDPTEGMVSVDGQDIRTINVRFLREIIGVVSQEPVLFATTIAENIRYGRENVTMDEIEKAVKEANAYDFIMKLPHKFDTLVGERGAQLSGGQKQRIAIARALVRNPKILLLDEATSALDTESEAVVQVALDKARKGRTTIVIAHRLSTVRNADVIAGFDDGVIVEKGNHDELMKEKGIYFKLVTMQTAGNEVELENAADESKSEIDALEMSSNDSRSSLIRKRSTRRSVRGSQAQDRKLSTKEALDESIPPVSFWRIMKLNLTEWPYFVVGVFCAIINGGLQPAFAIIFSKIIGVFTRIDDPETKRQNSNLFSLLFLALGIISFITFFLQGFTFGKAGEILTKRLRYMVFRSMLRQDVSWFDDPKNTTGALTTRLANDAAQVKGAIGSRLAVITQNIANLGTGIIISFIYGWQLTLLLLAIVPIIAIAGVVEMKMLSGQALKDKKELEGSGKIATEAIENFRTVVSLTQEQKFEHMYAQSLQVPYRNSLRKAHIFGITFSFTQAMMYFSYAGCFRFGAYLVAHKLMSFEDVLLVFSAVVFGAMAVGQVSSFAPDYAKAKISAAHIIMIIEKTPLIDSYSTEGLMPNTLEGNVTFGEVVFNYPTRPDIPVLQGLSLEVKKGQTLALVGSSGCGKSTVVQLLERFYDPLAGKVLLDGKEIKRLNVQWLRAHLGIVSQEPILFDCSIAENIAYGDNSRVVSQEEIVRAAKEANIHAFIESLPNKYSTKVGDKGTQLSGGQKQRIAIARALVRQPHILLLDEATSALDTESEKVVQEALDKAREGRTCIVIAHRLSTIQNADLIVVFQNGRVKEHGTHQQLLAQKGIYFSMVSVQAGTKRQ

[3] = biological target: T1, MDR1-P-glycoprotein (P-gp); assay: MDR efflux assay: doxorubicin efflux inhibition in CEM-VBL100 cells (flow cytometry); format: cell-based; parameters: CEM-VBL10 and CEM-VBL100 cells were isolated by stepwise selection of the parental drug sensitive CCRF-CEM (CEM) in the presence of increasing concentrations of VBL; endogenous in cells; host or cells: CEM-VBL10 (UIC2 shift assay) and CEM-VBL100 (doxorubicin efflux assay), MDR variants of CCRF-CEM; key to Doxorubicin efflux inhibition (B): the + or ++ symbols indicate arbitrary units in measuring and differentiating the level of UIC2 epitope modulation and doxorubicin retention; the + or ++ symbols indicate arbitrary units in measuring and differentiating the level of UIC2 epitope modulation and doxorubicin retention; details: for Doxorubicin efflux inhibition (B): CEM-VBL100 cells
Method: […] The cells were incubated with doxorubicin (10 μg/ml) only or drug diluent in parallel cultures. At the end of incubation, the cells were washed in serum-free medium and resuspended in BM in the presence of the IINs or Verapamil (drug diluent was added in control samples) for a further 1 h at 37°C. Finally, cells were washed twice with ice-cold PBS/FACS, and analyzed in a flow cytometer (FACScan, Becton Dickinson, San Josè, CA).

[4] = Cytotoxicity in HIV infected H9 cell line (trypan blue exclusion); format: cell-based, human; details: human, HIV-1 (HTLVIIIB) infected H9 T lymphoid cells, 50% Cytotoxic Concentration
Method: (§2) Anti-HIV activity was measured in the human T lymphoid H9 cells. To this purpose, cells were cultured in RPMI 1640, supplemented with 2 mM L-glutamine, penicillin, streptomycin and 10% fetal bovine serum (FBS), and infected with the HTLVIIIB laboratory strain of HIV-1 virus (100000 TCID50 – Tissue Culture Infective Dose- per 10^6 […]). After two hours of incubation, cells were washed with medium, and cultured at 37°C (5000 cells/well in 96-well microplates) for 3 days in presence of medium and test compounds at concentrations ranging from 50 μM to 0.1 μM. After 3 days p24 antigen concentration in the supernatants was measured by an ELISA assay (Innotest HIV antigen mAb, Innogenetics NV Belgium). Cell viability was determined by the trypan blue exclusion method.
(§3) The 50% inhibitory drug concentration (IC50) and the 50% cytotoxic drug concentration (CC50) were calculated by the median effect equation using Calcusyn Version 2.0 program (Biosoft Cambridge)

[5] = biological target: T1, MDR1-P-glycoprotein (P-gp); assay: UIC2 shift assay (P-gp functional conformation) in CEM-VBL10 cells; format: cell-based; parameters: CEM-VBL10 and CEM-VBL100 cells were isolated by stepwise selection of the parental drug sensitive CCRF-CEM (CEM) in the presence of increasing concentrations of VBL; endogenous in cells; host or cells: CEM-VBL10 (UIC2 shift assay) and CEM-VBL100 (doxorubicin efflux assay), MDR variants of CCRF-CEM; key to UIC2 epitope up-modulation (A): the + or ++ symbols indicate arbitrary units in measuring and differentiating the level of UIC2 epitope modulation and doxorubicin retention; the + or ++ symbols indicate arbitrary units in measuring and differentiating the level of UIC2 epitope modulation and doxorubicin retention; details: for mAb UIC2 reactivity: 37°C (Fig 1)
Method: as §1
The UIC2 shift assay was performed under physiological conditions as previously described. CEM-VBL10 cells (1 × 10^6) were resuspended in 1 ml of PBS containing 2% FCS and allowed to equilibrate at 37°C in a water bath for 10 min. The various IINs were added to samples (final concentrations 100 or 50 μg/ml) and incubated for additional 15 min at 37°C with purified UIC2 mAb (final concentration 12.5 μg/ml). VBL (10 μg/ml), which is a well known UIC2 shifting agent, and the drug diluents were used as positive and negative controls, respectively. Cells were then washed twice in ice-cold PBS containing 2% FCS with 0.01 % sodium azide (Shift Stop Buffer, SSB), stained on ice in SSB for additional 15 min with 5 μg/ml of fluorescein -conjugated goat-antimouse antibody (FITC-GAM, Cappel, West Chester, Pa, USA), washed twice with ice cold PBS/FACS and maintained in ice until flow cytometry analysis. The UIC2 shift is the difference between UIC2 binding in the presence versus the absence of the IINs under physiological conditions (37°C).

[6] = system: P-gp expression in CEM cells; assay: Induction of P-gp expression in parental drug sensitive CEM cells (flow cytometry); format: cell-based, human; details: 25 μg/ml, 28 days of culture
Description: Similarly to some of the isozymes involved in drug metabolism, the expression of P-gp is inducible. It is therefore important to assess whether P-gp induction occurs upon exposure to IINs, with potential implications for drug metabolism. To this aim, we investigated whether the treatment with the IINs RDS 1974, RDS 1983, RDS 1984 and RDS 1996, all having different biological and physicochemical properties (Table 1), modulate P-gp expression in the human CD4+ CEM cell system. The parental drug sensitive CEM cell line and the revertant of its derivative CEM-VBL10 MDR cell variant (CEMrev), expressing very low or undetectable amount of P-gp, were cultured in the presence of the indicated IINs (10 μg/ml for RDS 1974 and RDS 1996; 25 μg/ml for RDS 1983 and RDS 1984) for 28 days (RDS 1983, RDS 1984 and RDS 1996) or 104 days (RDS 1974). As a control for P-gp modulation, CEMrev cells were exposed to VBL, shown to increase P-gp expression.
The multidrug resistant (MDR) variants CEM-VBL10 and CEM-VBL100 cells were isolated by stepwise selection of the parental drug sensitive CCRF-CEM (CEM) in the presence of increasing concentrations of VBL [31, 32]. Cells were grown under standard conditions for mammalian cells cultured in suspension. […]

[7] = system: HTLVIIIB laboratory strain of HIV-1 virus; assay: Anti-HIV activity in HIV-infected H9 cells (p24 antigen ELISA); format: cell-based; details: HIV infected H9 cell line, 3 days, 50% Effective Concentration
Method: as §2, §3

H9 cells = assay: Cytotoxicity in HIV infected H9 cell line (trypan blue exclusion); format: cell-based, human; details: 50% Cytotoxic Concentration
Method: as §2, §3

O=C(O)/C(O)=C/C(=O)c1cn(Cc2c(F)cccc2F)c2ccccc2c1=O [RDS 1984]
% of P-gp expressing cells ([1]; 25 μg/ml, 28 days of culture): 15–18% | IC50 (HIV-1 Integrase (IN)): 0.019 µM | doxorubicin retention [2]: doxorubicin was retained | intracellular accumulation of doxorubicin ([3]; CEM-VBL100 MDR cells, 1 μg/ml to 100 μg/ml (Fig 2)): intracellular accumulation of doxorubicin with a dose dependent effect | CC50 at 3 days [4]: > 50 µM | mAb UIC2 reactivity ([5]; 50 μg/ml): increased | % of P-gp expressing cells [6]: 0% | EC50 ([7]; Human immunodeficiency virus 1, 72 h): 9.64 µM

O=C(O)C(=O)/C=C(\O)c1ccc2c(c1)c(=O)c(/C(O)=C/C(=O)C(=O)O)cn2Cc1ccc(F)cc1 [RDS 1997]
Doxorubicin efflux inhibition (B) ([3]; 25 μg/ml): + | Doxorubicin efflux inhibition (B) ([3]; 50 μg/ml): ++ | CC50 (H9 cells): > 50 µM | UIC2 epitope up-modulation (A) ([5]; 50 μg/ml): + | UIC2 epitope up-modulation (A) ([5]; 100 μg/ml): ++ | EC50 [7]: 2.44 µM

CC[C@]1(O)C[C@@H]2CN(CCc3c([nH]c4ccccc34)[C@@](C(=O)OC)(c3cc4c(cc3OC)N(C)[C@H]3[C@@](O)(C(=O)OC)[C@H](OC(C)=O)[C@]5(CC)C=CCN6CC[C@]43[C@@H]65)C2)C1 [Vinblastine]
P-gp expression (in words) ([1]; CEMrev cell line, compared with the drug diluent control): strong induction of P-gp expression | % of P-gp expressing cells ([1]; 10 μg/ml, 28 days of culture): 30–35% | % of P-gp expressing cells ([1]; 10 μg/ml, 104 days of culture): 60–70% | mAb UIC2 reactivity ([5]; 10 μg/ml): increased
